Earlier results in patent publication US12396965B2, “Putrescine topical barrier formulation” (VIVIER CANADA INC., priority 2017, dated 2025).

Legend:
epidermis of eroded skin = conditions: animals and human, topical
[1] = biological target: fibroblast tissue transglutaminase (Homo sapiens, UniProt P21980); conditions: in vitro and in vivo; topical; compared to controls
Chain of fibroblast tissue transglutaminase (P21980 whole entry): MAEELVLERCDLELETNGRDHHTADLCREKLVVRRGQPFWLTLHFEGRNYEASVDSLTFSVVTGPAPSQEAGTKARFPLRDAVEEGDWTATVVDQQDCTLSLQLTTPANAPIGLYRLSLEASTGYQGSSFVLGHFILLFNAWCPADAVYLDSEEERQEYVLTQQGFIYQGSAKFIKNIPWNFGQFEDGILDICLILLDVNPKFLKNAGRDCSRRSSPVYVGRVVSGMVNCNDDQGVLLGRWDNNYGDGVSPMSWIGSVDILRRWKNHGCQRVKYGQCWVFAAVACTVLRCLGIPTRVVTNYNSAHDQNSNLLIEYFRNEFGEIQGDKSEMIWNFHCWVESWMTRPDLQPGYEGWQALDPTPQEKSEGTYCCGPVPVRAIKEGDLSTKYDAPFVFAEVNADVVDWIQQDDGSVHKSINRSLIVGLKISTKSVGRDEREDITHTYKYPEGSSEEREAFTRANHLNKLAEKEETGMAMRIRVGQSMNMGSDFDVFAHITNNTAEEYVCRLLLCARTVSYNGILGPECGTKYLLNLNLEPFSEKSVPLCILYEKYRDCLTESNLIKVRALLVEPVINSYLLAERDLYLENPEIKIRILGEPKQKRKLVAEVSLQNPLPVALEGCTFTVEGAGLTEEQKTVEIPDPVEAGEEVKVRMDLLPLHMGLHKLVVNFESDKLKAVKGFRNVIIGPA

collagen cross-linking [1]: reduce collagen cross-linking
Structure (SMILES): NCCCCN [Putrescine, 1,4-diaminobutane]
barrier function of the epidermis and thickness of the stratum lucidum / inner strata of human epidermis (epidermis of eroded skin): increasing its barrier function as well as the thickness of the stratum lucidum
